Assay results: patent EP1049703B1, “N-[2-(5-BENZYLOXYCARBONYL-AMINO-6-OXO-2-(4-FLUOROPHENYL)-1,6-DIHYDRO-1-PYRIMIDINYL)ACETOXYL]-L-ASPARTIC ACID ALDEHYDE AS AN IN VIVO INHIBITOR OF INTERLEUKIN-1BETA CONVERTING ENZYME” (WARNER-LAMBERT COMPANY, priority 1998, dated 1999)

How the values were obtained:
ICE [1] = target: T1, ICE (Homo sapiens, UniProt P29466); experiment: ICE inhibition studies (fluorogenic substrate Ac-Tyr-Val-Ala-Asp-AMC, Ki); format: biochemical
T1 sequence (P29466 120-297 limits assumed): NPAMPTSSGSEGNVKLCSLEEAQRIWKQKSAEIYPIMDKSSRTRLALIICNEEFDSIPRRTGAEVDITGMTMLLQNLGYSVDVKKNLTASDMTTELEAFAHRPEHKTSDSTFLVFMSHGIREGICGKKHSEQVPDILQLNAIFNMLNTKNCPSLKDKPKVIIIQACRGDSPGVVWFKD
T1 sequence (P29466 317-404 limits assumed): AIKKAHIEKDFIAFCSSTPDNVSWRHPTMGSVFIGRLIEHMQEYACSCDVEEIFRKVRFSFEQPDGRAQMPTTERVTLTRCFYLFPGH
Experimental: ICE (0.24 nM final concentration) is added to 400 µL of HGDE buffer (100 mM HEPES, 20% glycerol, 5 mM DTT, 0.5 mM EDTA) containing 15 µM substrate (Ac-Tyr-Val-Ala-Asp-AMC; KM = 15 µM) plus vehicle (DMSO) or inhibitor at concentrations bracketing the Ki. Substrate hydrolysis is monitored for 300 seconds by observing the fluorescence of released AMC using excitation at 380 nm and emission at 460 nm. Mean rates of substrate hydrolysis are evaluated by linear-regression analysis of the fluorescence vs time traces. To evaluate Ki, plots of percent inhibition vs inhibitor concentration are fit by non-linear regression to a reversible, competitive model: [formula] where the competition factor (1 + [S]/KM) = 2.

ICE [2] = target: T1, ICE; experiment: ICE colorimetric dose-response (IC50) assay; format: biochemical; settings: about 24 nM ICE, 60 minutes preincubation, 50 µM Ac-Tyr-Val-Ala-Asp-pNA; read-out: 2. ICE IC50
Experimental: Diluted inhibitor stocks are prepared by two-fold serial dilution from a primary stock whose concentration is selected (based on screening results or on prior attempts at IC50 evaluation) to achieve approximately 95% inhibition in the most concentrated well. Aliquots of each dilution are transferred to a microtitre plate in triplicate.
ICE enzyme is diluted to approximately 24 nM in HGE buffer (100 mM Hepes pH 7.5, 0.5 mM EDTA, 20% glycerol, 0.1% Bovine Serum Albumin (BSA), and activated by adding dithiothreitol (DTT) to a final concentration of 5 mM. The activated enzyme is then aliquoted into wells containing inhibitor or vehicle, and the plate is preincubated for 60 minutes at ambient temperature. Substrate (Ac-Tyr-Val-Ala-Asp-pNA) is added to each well to a final concentration of 50 µM, and plates are placed in the microtitre plate-reader thermostated to 25°°C. Beginning 5 minutes after addition of substrate, absorbance (405 nm) of wells is monitored for 1 hour, and activity is calculated as the mean rate of change in absorbance during this interval.

[3] = test system: IL-1β production in human peripheral blood mononuclear cells (PBMCs); experiment: PBMC cellular assay: LPS-stimulated IL-1β production (ELISA); format: cell-based; settings: PBMCs stimulated overnight with 10 ng/mL LPS, concentration which reduces IL-1β levels by 50%, read-out: 3. PBMC IC50
From the text: Further evidence that compound 1 is a potent inhibitor of ICE is provided by its ability to inhibit IL-1β production in human peripheral blood mononuclear cells (PBMCs) as described herein. PBMCs are isolated from heparinized blood by centrifugation over a ficoll cushion, then washed three times with phosphate-buffered saline. PBMCs are suspended in a medium containing RPMI 1640 with glutamine, penicillin, streptomycin, and 2% human AB serum, then plated at 10^6 cells per well in 96 well flat bottom plates. PBMCs are stimulated overnight with 10 ng/mL of lipopolysaccharide (LPS, E. Coli strain 0111:B4; Calbiochem) in the presence or absence of compound 1 or 2. Medium is harvested, and the level of mature IL-1β was determined using an ELISA kit from R & D Systems. Compound inhibition is assessed by determining the concentration of agent which reduces IL-1β levels by 50%. Cells were cultured for an additional 4 hours in the presence of 3-(4, 5-dimethylthiazol-2-yl)-2, 5-diphenyltetrazolium bromide (MTT) to determine viability. Compound toxicity can, therefore, be assessed by determining the concentration of agent which kills 50% of the cells (IC50).

Ich-2 (Caspase 4) = target: T2, Ich-2 (Caspase 4) (Homo sapiens, UniProt P49662); experiment: Ich-2 colorimetric dose-response (IC50) assay; format: biochemical; settings: enzyme 64 nM, 60 µM Ac-Leu-Glu-Val-Asp-pNA
T2 sequence (P49662 81-270 limits assumed): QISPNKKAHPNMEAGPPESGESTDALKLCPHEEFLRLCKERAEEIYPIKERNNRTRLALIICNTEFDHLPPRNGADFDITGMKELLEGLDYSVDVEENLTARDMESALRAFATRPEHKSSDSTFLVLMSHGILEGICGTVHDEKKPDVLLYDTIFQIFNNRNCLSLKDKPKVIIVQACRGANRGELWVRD
T2 sequence (P49662 290-377 limits assumed): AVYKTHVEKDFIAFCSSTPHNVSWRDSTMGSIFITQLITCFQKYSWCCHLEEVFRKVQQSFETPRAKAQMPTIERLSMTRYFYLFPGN
Experimental: Inhibition of Ich-2 (Caspase 4) enzyme is assayed as described above for ICE, except that enzyme is used at 64 nM, and 60 µM of the Ich-2-specific substrate Ac-Leu-Glu-Val-Asp-pNA is used instead of the ICE substrate Ac-Tyr-Val-Ala-Asp-pNA.

IL-1β production = experiment: Mouse model: LPS-induced plasma IL-1β production; format: in vivo, Female C57BL/6 mice; settings: for inhibition of IL-1β production: 5 mg/kg LPS i.v. at T0, compound i.v. at 3.75 hours, plasma at T4h, compared to vehicle treated animals; for production of IL-1β (result in words): summary statement
Experimental: Female C57BL/6 mice are injected intravenously with 5 mg/kg lipopolysaccaride (LPS) (E. coli 0111:B4) at T0; this induces production of the cytokine interleukin-1β. After 3.75 hours from the administration of LPS, the mice are injected intravenously with either vehicle or a test compound. The mice are bled at T4h and plasma analyzed for IL-1β by ELISA. The vehicle is 5% DMSO/20% Trappsol/3% Dextrose/NMDG.

excitotoxic brain damage = experiment: Excitotoxic brain damage in neonatal rats; format: in vivo, Seven-day-old rat pups; settings: for % Loss (percent loss of hemisphere weight): 30 mg/kg intraperitoneal 0.25 hours after 15 nMoles of MDA into right caudate nucleus, five days later; for extent of exitotoxic brain damage in rat pups (result in words): summary statement
Experimental: Compound 1 and compound 2 are tested in a model of excitotoxic brain damage in neonatal rats. Seven-day-old rat pups are anesthetized with ether, placed in a head holder and injected with 15 nMoles of MDA into the right caudate nucleus. The pups are treated by intraperitoneal injection with drug (30 mg/kg) or vehicle (0.2% methocel in water) 0.25 hours later and then returned to their home cage. Five days following this excitotoxic challenge, the pups are sacrificed, their brains removed and hemispheres weighed. The loss in weight of the injected hemisphere relative to the contralateral hemisphere is an estimate of the degree of brain necrosis. […] Importantly, such protection is not seen at the same dose of compound 2.

focal cerebral ischemia = experiment: Ischemic brain damage model: permanent (MCAOp) and transient (MCAOt) focal cerebral ischemia; format: in vivo, CD-1 mice
Experimental: Compound 1 is tested in both permanent (MCAOp) and transient (MCAOt) models of focal cerebral ischemia in the mouse. The middle cerebral artery is occluded by an intraluminal suture in CD-1 mice. In the transient model, the suture is withdrawn after 1 hour and in both studies, mice are sacrificed at 24 hours, and brain lesion size is determined from H and E stained sections. Drug or vehicle is administered IP at -5, 60, and 180 minutes from the time of vessel occlusion at doses of 25 and 50 mg/kg × 3 (MCAOp) or 50 mg/kg × 3 (MCAOt). In the more severe MCAOp, there is a small reduction in lesion size (13%, p <0.04, one-tailed t-test) at the high dose whereas, in the less severe MCAOt, the lesion size is 60% smaller in the drug treated mice (p <0.002).

| SMILES | Mode of Inhib. (ICE [1]) | Ki (ICE [1]; 0.24 nM ICE, 15 µM Ac-Tyr-Val-Ala-Asp-AMC, reversible competitive model, read-out: 1. ICE Ki) | IC50 (ICE [2]) | IC50 [3] | IC50 (Ich-2 (Caspase 4)) | inhibition of IL-1β production (IL-1β production) | production of IL-1β (result in words) (IL-1β production) | % Loss (percent loss of hemisphere weight) (excitotoxic brain damage) | extent of exitotoxic brain damage in rat pups (result in words) (excitotoxic brain damage) | reduction in lesion size (focal cerebral ischemia; MCAOp (permanent), high dose 50 mg/kg × 3 IP at -5, 60, 180 minutes, 24 hours) | lesion size smaller in drug treated mice (focal cerebral ischemia; MCAOt (transient, suture withdrawn after 1 hour), 50 mg/kg × 3 IP, 24 hours) | arterial lesion size in ischemic brain damage (result in words) (focal cerebral ischemia; mice, middle cerebral artery occlusion after reperfusion, summary statement) |
| --- | --- | --- | --- | --- | --- | --- | --- | --- | --- | --- | --- | --- |
| O=CC(CC(=O)O)NC(=O)Cn1c(-c2ccc(F)cc2)ncc(NC(=O)OCc2ccccc2)c1=O [Compound 1, N-[2-(5-benzyloxycarbonyl-amino-6-oxo-2-(4-fluorophenyl)-1,6-dihydro-1-pyrimidinyl)acetoxyl]-L-aspartic acid aldehyde] | reversible | 0.06 µM | 0.485 µM | 1.8 µM | 9.8 µM | 48% | significantly blocks | 16.1% | significantly reduces | 13% | 60% | reduced arterial lesion size |
| O=C(O)CC(NC(=O)Cn1c(-c2ccc(F)cc2)ncc(NC(=O)OCc2ccccc2)c1=O)C(=O)COc1cc(C(F)(F)F)nn1-c1ccccc1 (centres unmarked) [Compound 2, reference compound] | irreversible | – | 0.004 µM | 2.2 µM | 0.005 µM | 11% | inactive | 20.8% | not seen | – | – | – |
